The subject of the assay is E. coli BW25113. Briefly: Assay 1: growth inhibition of E. coli by sub-inhibitory pyridomycin in combination with examples (resazurin reduction). Format: cell-based, Escherichia coli. To be noted: read-out: EC50 on E. coli with 8 μg/mL of pyridomycin, 8 μg/mL pyridomycin, 5 h, 37° C. The source says: Escherichia coli BW25113 (CGSC 7636) and its derivatives E. coli ΔtolC (JW5503-1, ΔtolC732::kan, CGSC 11430), E. coli ΔacrA (JW0452-3, ΔacrA748::kan, CGSC 11843) and E. coli ΔacrB (JW0451-2, ΔacrB747::kan, CGSC 8609) were obtained from E. coli Genetic Stock Center (CGSC, New Haven, Connecticut) and originated from the Keio Collection (Baba T et al, Mol Sys Biol, 2006). Klebsiella pneumoniae (LMG 2095/ATCC 13883) and K. pneumoniae (ATCC43816), Pseudomonas aeruginosa (PAO1), Acinetobacter baumannii (LMG 1025, ATCC 17978), were obtained from ATCC or BCCM/LMG Bacteria Collection. All bacteria were grown and tested in cation-adjusted Mueller-Hinton broth (CAMHB; BD Difco) at 37° C. For conservation, log phase bacteria were frozen (−80° C.) in CAMHB supplemented with 15% glycerol.
Briefly, E. coli BW25113 were diluted from frozen or growing stocks to an OD600 of 0.0004-0.001 in CAMHB. […] E. coli BW25113 viability was evaluated using the resazurin reduction assay, and measured by fluorescence (POLARstar Omega, BMG Labtech: Ex: 530 nm Em: 590 nm). EC50 were defined as the compound concentration that prevented 50% of resazurin turnover compared to the non-treated bacteria.
Background: Resazurin is reduced to fluorescent resorufin, in cell work by metabolically active cells.

Where a name gives a salt, the structure may show the parent alone. Where only a bound is given, the exact number is not on record here.

`CN1CCN(c2ncc(C(F)(F)F)cc2Br)CC1` [Example 2, 1-[3-bromo-5-(trifluoromethyl)-2-pyridyl]-4-methyl-piperazine]: the EC50 was in the range of 5 to 100 µM. The figure for `Cc1cnc(N2CCN(C)CC2)c(Cl)c1` [Example 10, 1-(3-chloro-5-methyl-2-pyridyl)-4-methyl-piperazine] is 5 to 100 µM. On to `CN(C)CCn1cc(-c2ccc3nc(N4CCNCC4)c(Cl)cc3c2)nn1` [Example 95, 2-[4-(3-chloro-2-piperazin-1-yl-6-quinolyl)triazol-1-yl]-N,N-dimethyl-ethanamine;dihydrochloride], for which the EC50 was < 5 µM. The figure for `NCCc1cccc(-c2ccc3nc(N4CCNCC4)c(Cl)cc3c2)c1` [Example 115, 2-[3-(3-chloro-2-piperazin-1-yl-6-quinolyl)phenyl]ethanamine;dihydrochloride] is < 5 µM; for `NCc1ccnc(-c2ccc3nc(N4CCNCC4)c(Cl)cc3c2)c1` [Example 131, [2-(3-chloro-2-piperazin-1-yl-6-quinolyl)-4-pyridyl]methanamine;dihydrochloride] it is < 5 µM.

As to `CN1CCN(c2nc3ccccc3cc2Cl)CC1` [Example 81, 3-chloro-2-(4-methylpiperazin-1-yl)quinoline], the EC50 lay within 5 to 100 µM. Consider `Clc1cc2cc(Br)ccc2nc1N1CCNCC1` [Example 60, 6-bromo-3-chloro-2-piperazin-1-yl-quinoline;hydrochloride], for which the EC50 fell in the range of 5 to 100 µM. Regarding `NCC(=O)Nc1ccc2nc(N3CCNCC3)c(Cl)cc2c1` [Example 65, 2-amino-N-(3-chloro-2-piperazin-1-yl-6-quinolyl)acetamide;dihydrochloride], the EC50 was < 5 µM. Take `NCCc1ccc(NC(=O)c2cnc(N3CCNCC3)c(Cl)c2)cc1` [Example 34, N-[4-(2-aminoethyl)phenyl]-5-chloro-6-piperazin-1-yl-pyridine-3-carboxamide;dihydrochloride]: the EC50 was in the range of 5 to 100 µM.

As for `NCc1cccc(OC(=O)c2cnc(N3CCNCC3)c(Cl)c2)c1` [Example 29, [3-(aminomethyl)phenyl] 5-chloro-6-piperazin-1-yl-pyridine-3-carboxylate;dihydrochloride], the EC50 was < 5 µM. With `NCCCc1nc(-c2cnc(N3CCNCC3)c(Cl)c2)no1` [Example 76, 3-[3-(5-chloro-6-piperazin-1-yl-3-pyridyl)-1,2,4-oxadiazol-5-yl]propan-1-amine; dihydrochloride], the EC50 fell in the range of 5 to 100 µM.

For the compound `COC(=O)c1cnc(N2CCN(C)CC2)c(Cl)c1` [Example 3, methyl 5-chloro-6-(4-methylpiperazin-1-yl)pyridine-3-carboxylate], the EC50 fell in the range of 5 to 100 µM. On to `Clc1nc2ccccc2cc1N1CCNCC1` [Example 40, 2-chloro-3-piperazin-1-yl-quinoline;hydrochloride], for which the EC50 was in the range of 5 to 100 µM. Turning to `O=C(Oc1ccccc1)c1cnc(N2CCNCC2)c(Cl)c1` [Example 84, Phenyl 5-chloro-6-piperazin-1-yl-pyridine-3-carboxylate; 2,2,2-trifluoroacetic acid], the EC50 lay in the range of 5 to 100 µM. The figure for `OCc1cccc(-c2ccc3nc(N4CCNCC4)c(Cl)cc3c2)c1` [Example 108, [3-(3-chloro-2-piperazin-1-yl-6-quinolyl)phenyl]methanol;hydrochloride] is < 5 µM; for `Cc1cnc(N2CCNCC2)c(Cl)c1` [Example 12, 1-(3-chloro-5-methyl-2-pyridyl)piperazine; hydrochloride] it is 5 to 100 µM; for `Clc1cc2cc(N3CCCCC3)ccc2nc1N1CCNCC1` [Example 67, 3-chloro-2-piperazin-1-yl-6-(1-piperidyl)quinoline;hydrochloride] it is 5 to 100 µM.

Consider `CN1CCN(c2ccc(C(F)(F)F)cc2Cl)CC1` [Example 5, 1-[2-chloro-4-(trifluoromethyl)phenyl]-4-methyl-piperazine], for which the EC50 lay in the range of 100 to 500 µM.

With `Clc1cc2cc(N3CCNCC3)ccc2nc1N1CCNCC1` [Example 56, 3-chloro-2,6-di(piperazin-1 yl)quinoline;dihydrochloride], the EC50 is < 5 µM.

Regarding `NCc1cccc(OCc2cnc(N3CCNCC3)c(Cl)c2)c1` [Example 77, [3-[(5-chloro-6-piperazin-1-yl-3-pyridyl)methoxy]phenyl]methanamine;dihydrochloride], the EC50 was in the range of 5 to 100 µM. The result for `Clc1cc2cc(N[C@@H]3CCNC3)ccc2nc1N1CCNCC1` [Example 103, 3-chloro-2-piperazin-1-yl-N-[(3R)-pyrrolidin-3-yl]quinolin-6-amine;dihydrochloride] reads 5 to 100 µM. Turning to `N[C@@H]1CCN(c2ccc3nc(N4CCNCC4)c(Cl)cc3c2)C1` [Example 101, (3R)-1-(3-chloro-2-piperazin-1-yl-6-quinolyl)pyrrolidin-3-amine;dihydrochloride], the EC50 is < 5 µM. The figure for `Cc1cc2nc(Cl)c(N3CCNCC3)nc2cc1C` [Example 47, 2-chloro-6,7-dimethyl-3-piperazin-1-yl-quinoxaline;hydrochloride] is < 5 µM; for `Clc1cc(C#Cc2ccccc2)cnc1N1CCNCC1` [Example 89, 1-[3-chloro-5-(2-phenylethynyl)-2-pyridyl]piperazine; 2,2,2-trifluoroacetic acid] it is 5 to 100 µM.

Regarding `N[C@H]1CCN(c2ccc3nc(N4CCNCC4)c(Cl)cc3c2)C1` [Example 102, (3S)-1-(3-chloro-2-piperazin-1-yl-6-quinolyl)pyrrolidin-3-amine;dihydrochloride], the EC50 was < 5 µM. The result for `NCc1nc(-c2cnc(N3CCNCC3)c(Cl)c2)no1` [Example 74, [3-(5-chloro-6-piperazin-1-yl-3-pyridyl)-1,2,4-oxadiazol-5-yl]methanamine;dihydrochloride] reads 5 to 100 µM; that for `Clc1cc2cc(I)ccc2nc1N1CCNCC1` [Example 61, 3-chloro-6-iodo-2-piperazin-1-yl-quinoline;hydrochloride], < 5 µM; that for `C#Cc1cnc(N2CCNCC2)c(Cl)c1` [Example 88, 1-(3-chloro-5-ethynyl-2-pyridyl)piperazine], 5 to 100 µM.

With `O=C1CNCCN1c1ccc2nc(N3CCNCC3)c(Cl)cc2c1` [Example 64, 1-(3-chloro-2-piperazin-1-yl-6-quinolyl)piperazin-2-one;dihydrochloride], the EC50 was 5 to 100 µM. Take `NCCc1ccc(C(=O)Nc2cnc(N3CCNCC3)c(Cl)c2)cc1` [Example 71, 4-(2-aminoethyl)-N-(5-chloro-6-piperazin-1-yl-3-pyridyl)benzamide;dihydrochloride]: the EC50 lay in the range of 5 to 100 µM. `NCc1cc(Cl)cc(-c2ccc3nc(N4CCNCC4)c(Cl)cc3c2)c1` [Example 137, [3-chloro-5-(3-chloro-2-piperazin-1-yl-6-quinolyl)phenyl]methanamine;dihydrochloride]: the EC50 is < 5 µM. Consider `NCC1CCN(c2ccc3nc(N4CCNCC4)c(Cl)cc3c2)C1` (centres unmarked) [Example 100, [1-(3-chloro-2-piperazin-1-yl-6-quinolyl)pyrrolidin-3-yl]methanamine;dihydrochloride], for which the EC50 was < 5 µM. In the case of `NCC1CCN(c2ccc3nc(N4CCNCC4)c(Cl)cc3c2)CC1` [Example 99, [1-(3-chloro-2-piperazin-1-yl-6-quinolyl)-4-piperidyl]methanamine;dihydrochloride], the EC50 is < 5 µM.

Regarding `NCc1cncc(-c2ccc3nc(N4CCNCC4)c(Cl)cc3c2)c1` [Example 132, [5-(3-chloro-2-piperazin-1-yl-6-quinolyl)-3-pyridyl]methanamine;dihydrochloride], the EC50 is < 5 µM. The result for `Cc1nc(-c2cnc(N3CCNCC3)c(Cl)c2)no1` [Example 73, 3-(5-chloro-6-piperazin-1-yl-3-pyridyl)-5-methyl-1,2,4-oxadiazole;hydrochloride] reads 5 to 100 µM. On to `CS(=O)(=O)Nc1cnc(N2CCNCC2)c(Cl)c1` [Example 36, N-(5-chloro-6-piperazin-1-yl-3-pyridyl)methane sulfonamide;hydrochloride], for which the EC50 was in the range of 100 to 500 µM. The figure for `O=C1CCCN1c1ccc2nc(N3CCNCC3)c(Cl)cc2c1` [Example 97, 1-(3-chloro-2-piperazin-1-yl-6-quinolyl)pyrrolidin-2-one;hydrochloride] is < 5 µM; for `O=C1NCCN1c1ccc2nc(N3CCNCC3)c(Cl)cc2c1` [Example 96, 1-(3-chloro-2-piperazin-1-yl-6-quinolyl)imidazolidin-2-one;hydrochloride] it is < 5 µM; for `Cc1nnc(-c2cnc(N3CCNCC3)c(Cl)c2)o1` [Example 72, 2-(5-chloro-6-piperazin-1-yl-3-pyridyl)-5-methyl-1,3,4-oxadiazole] it is 5 to 100 µM. The figure for `Clc1cc(I)cnc1N1CCNCC1` [Example 79, 1-(3-chloro-5-iodo-2-pyridyl)piperazine] is 5 to 100 µM; for `NCCNc1ccc2nc(N3CCNCC3)c(Cl)cc2c1` [Example 62, N′-(3-chloro-2-piperazin-1-yl-6-quinolyl)ethane-1,2-diamine; dihydrochloride] it is < 5 µM.

The values above are taken from patent publication US20240327354A1, “GRAM-NEGATIVE BACTERIA EFFLUX PUMP INHIBITORS” (INSTITUT NATIONAL DE LA SANTÉ ET DE LA RECHERCHE MÉDICALE, priority 2021, published 2024).
